Our source for the TGI values is PubChem BioAssay (NCI).

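Test compounds were applied to cells in 96-well plates for 48 hours at 5 doses. TGI: concentration producing complete growth inhibition.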

The term TGI denotes the concentration at which net growth stops. Read a high TGI as lower sensitivity of the cells.

Among the test systems are 786-0 renal; HCT-116 colon; HL-60(TB) leukemia; IGROV1 ovarian; MOLT-4 leukemia; NCI-H460 lung; SF-295 CNS; SNB-19 CNS; SNB-75 CNS; TK-10 renal; A498 renal; CAKI-1 renal; SR leukemia.
Common to all, as to experiment: DTP human tumour cell line panel, 48 h

As for `C#C[C@]1(O)CCC2C3CCc4cc(Oc5nc(F)nc(-c6c7cc8ccccc8cc7c7n6CCS7)n5)ccc4C3CCC21C` (some centres undefined), the total growth inhibition concentration (TGI) with 786-0 renal, with HCT-116 colon, with HL-60(TB) leukemia, with IGROV1 ovarian, with MOLT-4 leukemia and in the assay with NCI-H460 lung was > 100 µM throughout. The total growth inhibition concentration (TGI) in the assay with SF-295 CNS, in the assay on SNB-19 CNS, with SNB-75 CNS and in the assay on TK-10 renal was > 100 µM throughout.

With `CCCN1CN(C(C(=O)N[C@@H]2C(=O)N3C(C(=O)O)=C(C)CSC23)c2ccc(O)cc2)CSC1=S` (some centres undefined), the total growth inhibition concentration (TGI) in the assay on 786-0 renal, with A498 renal, with CAKI-1 renal, in the assay on HCT-116 colon, in the assay with HL-60(TB) leukemia and in the assay with IGROV1 ovarian was > 100 µM throughout. In addition, the TGI in the assay on MOLT-4 leukemia, in the assay on NCI-H460 lung, in the assay with SF-295 CNS, in the assay with SNB-19 CNS, in the assay on SNB-75 CNS and in the assay with TK-10 renal was > 100 µM in each case.

Turning to `CC1(C)CCC[C@@]2(C)C1CC[C@H]1CC(O)C3(C)CCC12C3` (some centres undefined), the TGI with 786-0 renal was found to be 31.5 µM; in the assay with CAKI-1 renal, 32 µM; in the assay with HCT-116 colon, 31 µM; in the assay with HL-60(TB) leukemia, 51.2 µM; in the assay with IGROV1 ovarian, 50.6 µM; in the assay with MOLT-4 leukemia it was 44.5 µM. In addition, the TGI came out at 32.8 µM in the assay on NCI-H460 lung; 31.9 µM in the assay with SNB-19 CNS; 39.3 µM with SNB-75 CNS; 46.7 µM with SR leukemia; 28.7 µM with TK-10 renal.

For `CCCn1c(SCC)c2cc3cc4ccccc4cc3cc2c1-c1nc(F)nc(F)n1`, the concentration for total growth inhibition (TGI) in the assay on 786-0 renal, in the assay on CAKI-1 renal, with HCT-116 colon, with HL-60(TB) leukemia, in the assay with IGROV1 ovarian and in the assay with MOLT-4 leukemia was > 100 µM throughout. Also, the TGI with NCI-H460 lung, with SF-295 CNS, with SNB-19 CNS, in the assay on SNB-75 CNS, in the assay with SR leukemia and with TK-10 renal was > 100 µM throughout.

Turning to `[N-]=[NH+]CC(=O)OC(COCc1ccccc1)COCc1ccccc1`, the TGI was > 100 µM in the assay on 786-0 renal; > 100 µM in the assay with A498 renal; 86.6 µM with CAKI-1 renal; > 100 µM in the assay with HCT-116 colon; > 100 µM in the assay with HL-60(TB) leukemia; > 100 µM with IGROV1 ovarian. For the same molecule, the TGI in the assay with MOLT-4 leukemia, in the assay with NCI-H460 lung, in the assay on SF-295 CNS, in the assay with SNB-19 CNS, in the assay with SR leukemia and with TK-10 renal was > 100 µM each time.

`COC(=O)c1ccccc1/C=C1\Cc2cc(C)cc(C)c2C1=O`: the TGI in the assay on 786-0 renal, with A498 renal, in the assay on HCT-116 colon, in the assay with HL-60(TB) leukemia, in the assay on IGROV1 ovarian and in the assay with MOLT-4 leukemia was > 100 µM throughout. Further, the TGI in the assay on NCI-H460 lung, in the assay on SF-295 CNS, in the assay with SNB-19 CNS, in the assay with SNB-75 CNS, in the assay on SR leukemia and with TK-10 renal was > 100 µM in each case.

With `COC(=O)C1[C@@H](C(=O)OC)C12C=Cc1ccccc1C=C2` (some centres undefined), the TGI with 786-0 renal, in the assay on A498 renal, in the assay with HCT-116 colon, in the assay on HL-60(TB) leukemia, in the assay with IGROV1 ovarian and with MOLT-4 leukemia was > 100 µM throughout. Moreover, the TGI in the assay with NCI-H460 lung, with SF-295 CNS, in the assay on SNB-19 CNS, in the assay with SR leukemia and with TK-10 renal was > 100 µM in each case.

For the molecule `O=C(c1cccs1)N(C(=S)N1CCN(c2ccccn2)CC1)C1CCCCC1`, the TGI in the assay on 786-0 renal, in the assay with CAKI-1 renal, in the assay on HCT-116 colon, in the assay on HL-60(TB) leukemia, with IGROV1 ovarian and with MOLT-4 leukemia was > 100 µM in each case. The TGI in the assay with NCI-H460 lung, in the assay with SF-295 CNS, with SNB-19 CNS, in the assay with SNB-75 CNS, in the assay with SR leukemia and in the assay with TK-10 renal was > 100 µM in each case.

Take `O=C(c1ccco1)N(C(=S)N1CCN(c2ccccn2)CC1)C1CCCCC1`: the TGI in the assay on 786-0 renal, in the assay on CAKI-1 renal, in the assay on HCT-116 colon, in the assay with HL-60(TB) leukemia, in the assay with IGROV1 ovarian and in the assay with MOLT-4 leukemia was > 100 µM in each case. The TGI in the assay on NCI-H460 lung, in the assay with SF-295 CNS, in the assay with SNB-19 CNS, with SNB-75 CNS, in the assay with SR leukemia and with TK-10 renal was > 100 µM in each case.
